Measured values taken from patent publication US9850203B2, “Autotaxin inhibitor compounds” (PharmAkea, Inc., priority 2013, dated 2017).

target: human autotaxin (ATX) (Homo sapiens (Human), UniProt Q13822); assay: Human Autotaxin Assay; format: biochemical; settings: concentrated conditioned media from Hep3B cells; LPC substrate, choline release
Description: ATX activity is assayed in concentrated conditioned media from Hep3B human hepatocellular carcinoma cells by measuring the amount of choline released from the substrate, lysophosphatidylcholine (LPC) as it is cleaved to LPA. Conditioned media is collected from confluent Hep3B cells and concentrated 20-fold using Centriprep-30 filter devices (Millipore). To assay for autotaxin inhibition, 10-20 μL of the concentrated conditioned media is incubated with 2.5 μL of a test compound in DMSO and 72.5-82.5 μL lyso-PLD buffer (100 mM Tris pH 9, 500 mM NaCl, 5 mM MgCl2, 5 mM CaCl2, 0.05% Triton X-100 in the presence or absence of 0.2% fatty-acid-free human serum albumin) for 15 min at 37° C. After the 15 min incubation, 5 uL of 2 mM LPC (14:0; Avanti Polar Lipids Cat#855575C) diluted in lyso-PLD buffer is added for a final concentration of 100 uM and the incubation continues for 1.5-3 hours at 37° C.

SMILES	IC50 [nM]
Cc1c(Sc2cccc(C(=O)O)c2)c2ccc(Cl)c(F)c2n1CC(=O)N(C)c1ccccc1 [Compound 1-8, 3-((6-Chloro-7-fluoro-2-methyl-1-(2-(methyl(phenyl)amino)-2-oxoethyl)-1H-indol-3-yl)thio)benzoic acid]	500 to 3000
Cc1c(Sc2cccc(C(=O)O)c2)c2ccc(Cl)c(F)c2n1CC(=O)N1CCCC1c1cnn(C)c1 (centres unmarked) [Compound 1-85, 3-((6-Chloro-7-fluoro-2-methyl-1-(2-(2-(1-methyl-1H-pyrazol-4-yl)pyrrolidin-1-yl)-2-oxoethyl)-1H-indol-3-yl)thio)benzoic acid]	≤ 500
Cc1c(Sc2cccc(C(=O)O)c2)c2ccc(Cl)c(F)c2n1CC(=O)Nc1cc(Cl)cc(Cl)c1 [Compound 1-4, 3-((6-Chloro-1-(2-((3,5-dichlorophenyl)amino)-2-oxoethyl)-7-fluoro-2-methyl-1H-indol-3-yl)thio)benzoic acid]	> 3000
Cc1c(Sc2cccc(C(=O)O)c2)c2ccc(Cl)c(F)c2n1CC(=O)N1CC(C)(O)C1 [Compound 1-52, 3-((6-Chloro-7-fluoro-1-(2-(3-hydroxy-3-methylazetidin-1-yl)-2-oxoethyl)-2-methyl-1H-indol-3-yl)thio)benzoic acid]	≤ 500
Cc1c(Sc2cccc(C(=O)O)c2)c2ccc(Cl)c(F)c2n1CC(=O)N1CCc2cc(Cl)ccc21 [Compound 1-71, 3-((6-Chloro-1-(2-(5-chloroindolin-1-yl)-2-oxoethyl)-7-fluoro-2-methyl-1H-indol-3-yl)thio)benzoic acid]	≤ 500
Cc1c(Sc2cccc(C(=O)O)c2F)c2ccc(Cl)c(F)c2n1CCN1CC2(CC2)c2ccccc21 [Compound 2-74, Sodium 3-((6-chloro-7-fluoro-2-methyl-1-(2-(spiro[cyclopropane-1,3′-indolin]-1′-yl)ethyl)-1H-indol-3-yl)thio)-2-fluorobenzoate]	≤ 500
Cc1c(Sc2cccc(C(=O)O)c2)c2ccc(Cl)c(F)c2n1CC(=O)N1CCC12CCN(C)CC2 [Compound 1-87, 3-((6-Chloro-7-fluoro-2-methyl-1-(2-(7-methyl-1,7-diazaspiro[3.5]nonan-1-yl)-2-oxoethyl)-1H-indol-3-yl)thio)benzoic acid]	≤ 500
Cc1c(Sc2cccc(C(=O)O)c2)c2ccc(Cl)c(F)c2n1CC(=O)N1CC2(CNC(=O)C2)C1 [Compound 1-49, 3-((6-Chloro-7-fluoro-2-methyl-1-(2-oxo-2-(7-oxo-2,6-diazaspiro[3,4]octan-2-yl)ethyl)-1H-indol-3-yl)thio)benzoic acid]	≤ 500
Cc1c(Sc2cccc(C(=O)O)c2)c2ccc(Cl)c(F)c2n1CC(=O)N1CC2(CC2)c2cc(F)ccc21 [Compound 1-32, 3-((6-Chloro-7-fluoro-1-(2-(5′-fluorospiro[cyclopropane-1,3′-indolin]-1′-yl)-2-oxoethyl)-2-methyl-1H-indol-3-yl)thio)benzoic acid]	≤ 500
Cc1c(Sc2cccc(C(=O)O)c2)c2ccc(Cl)c(F)c2n1CC(=O)N1CCC(Cc2ccncc2)C1 (centres unmarked) [Compound 1-88, 3-((6-Chloro-7-fluoro-2-methyl-1-(2-oxo-2-(3-(pyridin-4-ylmethyl)pyrrolidin-1-yl)ethyl)-1H-indol-3-yl)thio)benzoic acid]	≤ 500
Cc1c(Sc2cccc(C(=O)O)c2)c2ccc(Cl)c(F)c2n1CC(=O)N1CCc2ccc(Cl)cc21 [Compound 1-73, 3-((6-Chloro-1-(2-(6-chloroindolin-1-yl)-2-oxoethyl)-7-fluoro-2-methyl-1H-indol-3-yl)thio)benzoic acid]	≤ 500
Cc1c(Sc2cccc(C(=O)O)c2)c2ccc(Cl)c(F)c2n1CC(=O)N1CCC(c2ccncc2)C1 (centres unmarked) [Compound 1-89, 3-((6-Chloro-7-fluoro-2-methyl-1-(2-oxo-2-(3-(pyridin-4-yl)pyrrolidin-1-yl)ethyl)-1H-indol-3-yl)thio)benzoic acid]	≤ 500
Cc1c(Sc2cccc(C(=O)O)c2)c2ccc(Cl)c(F)c2n1CC(=O)N1CCC(OCc2ccc(F)cc2)C1 (centres unmarked) [Compound 1-22, 3-((6-Chloro-7-fluoro-1-(2-(3-((4-fluorobenzyl)oxy)pyrrolidin-1-yl)-2-oxoethyl)-2-methyl-1H-indol-3-yl)thio)benzoic acid]	≤ 500
Cc1c(Sc2cccc(C(=O)O)c2)c2ccc(Cl)c(F)c2n1CCC(=O)N1CCc2ccccc21 [Compound 1-26, 3-((6-Chloro-7-fluoro-1-(3-(indolin-1-yl)-3-oxopropyl)-2-methyl-1H-indol-3-yl)thio)benzoic acid]	≤ 500
Cc1c(Sc2cccc(C(=O)O)c2)c2ccc(Cl)c(F)c2n1CC(=O)N1CC2C(C1)C2C(N)=O [Compound 1-51, 3-((1-(2-((1R,5S,6R)-6-Carbamoyl-3-azabicyclo[3.1.0]hexan-3-yl)-2-oxoethyl)-6-chloro-7-fluoro-2-methyl-1H-indol-3-yl)thio)benzoic acid]	≤ 500
Cc1c(Sc2cccc(C(=O)O)c2)c2ccc(Cl)c(F)c2n1CC(=O)N1CCC(Cc2ccc(C(F)(F)F)cc2)C1 (centres unmarked) [Compound 1-78, 3-((6-Chloro-7-fluoro-2-methyl-1-(2-oxo-2-(3-(4-(trifluoromethyl)benzyl)pyrrolidin-1-yl)ethyl)-1H-indol-3-yl)thio)benzoic acid]	500 to 3000
Cc1c(Sc2cccc(C(=O)O)c2)c2ccc(Cl)c(F)c2n1CC(=O)Nc1ccccc1 [Compound 1-3, 3-((6-Chloro-7-fluoro-2-methyl-1-(2-oxo-2-(phenylamino)ethyl)-1H-indol-3-yl)thio)benzoic acid]	500 to 3000

Results, then the molecule that gave them:

IC50 [nM]	SMILES
≤ 500	Cc1c(Sc2cccc(C(=O)O)c2)c2ccc(Cl)c(F)c2n1CC(=O)N1CC(n2cccn2)C1 [Compound 1-86, 3-((1-(2-(3-(1H-Pyrazol-1-yl)azetidin-1-yl)-2-oxoethyl)-6-chloro-7-fluoro-2-methyl-1H-indol-3-yl)thio)benzoic acid]
≤ 500	Cc1c(Sc2cccc(C(=O)O)c2F)c2ccc(Cl)c(F)c2n1CC(=O)N1CC2(CC2)c2ccccc21 [Compound 2-55, 3-((6-Chloro-7-fluoro-2-methyl-1-(2-oxo-2-(spiro[cyclopropane-1,3′-indolin]-1′-yl)ethyl)-1H-indol-3-yl)thio)-2-fluorobenzoic acid]
≤ 500	CCCC1CCN(C(=O)Cn2c(C)c(Sc3cccc(C(=O)O)c3)c3ccc(Cl)c(F)c32)C1 (centres unmarked) [Compound 1-77, 3-((6-Chloro-7-fluoro-2-methyl-1-(2-oxo-2-(3-propylpyrrolidin-1-yl)ethyl)-1H-indol-3-yl)thio)benzoic acid]
≤ 500	COc1ccc2c(c1)CCN2C(=O)Cn1c(C)c(Sc2cccc(C(=O)O)c2)c2ccc(Cl)c(F)c21 [Compound 1-58, 3-((6-Chloro-1-(2-(5-methoxyindolin-1-yl)-2-oxoethyl)-7-fluoro-2-methyl-1H-indol-3-yl)thio)benzoic acid]
≤ 500	Cc1c(Sc2cccc(C(=O)O)c2)c2ccc(Cl)c(F)c2n1CC(=O)N1CCC(c2cnn(C)c2)C1 (centres unmarked) [Compound 1-96, 3-((6-Chloro-7-fluoro-2-methyl-1-(2-(3-(1-methyl-1H-pyrazol-4-yl)pyrrolidin-1-yl)-2-oxoethyl)-1H-indol-3-yl)thio)benzoic acid]
≤ 500	Cc1c(Sc2cccc(C(=O)O)c2)c2ccc(Cl)c(F)c2n1CC(=O)N1CCC2(CC1)CC(=O)C2 [Compound 1-18, 3-((6-Chloro-7-fluoro-2-methyl-1-(2-oxo-2-(2-oxo-7-azaspiro[3.5]nonan-7-yl)ethyl)-1H-indol-3-yl)thio)benzoic acid]
≤ 500	Cc1c(Sc2cccc(C(=O)O)c2F)c2ccc(Cl)c(F)c2n1CC(=O)N1CC2(CCC2)c2c(F)cccc21 [Compound 3-96, 3-((6-Chloro-7-fluoro-1-(2-(4′-fluorospiro[cyclobutane-1,3′-indolin]-1′-yl)-2-oxoethyl)-2-methyl-1H-indol-3-yl)thio)-2-fluorobenzoic acid]
≤ 500	Cc1c(Sc2cccc(C(=O)O)c2)c2ccc(Cl)c(F)c2n1CC(=O)N1CCc2ccncc21 [Compound 1-97, 3-((6-Chloro-1-(2-(2,3-dihydro-1H-pyrrolo[2,3-c]pyridin-1-yl)-2-oxoethyl)-7-fluoro-2-methyl-1H-indol-3-yl)thio)benzoic acid]
≤ 500	Cc1c(Sc2cccc(C(=O)O)c2)c2ccc(Cl)c(F)c2n1CC(=O)N1CCCC2(CNC(=O)O2)C1 (centres unmarked) [Compound 1-69, 3-((6-Chloro-7-fluoro-2-methyl-1-(2-oxo-2-(2-oxo-1-oxa-3,7-diazaspiro[4.5]decan-7-yl)ethyl)-1H-indol-3-yl)thio)benzoic acid]
≤ 500	Cc1c(Sc2cccc(C(=O)O)c2)c2ccc(Cl)c(F)c2n1CC(=O)N1CCC2(CCOCC2)C1 [Compound 1-46, 3-((6-Chloro-7-fluoro-2-methyl-1-(2-oxo-2-(8-oxa-2-azaspiro[4.5]decan-2-yl)ethyl)-1H-indol-3-yl)thio)benzoic acid]
≤ 500	Cc1c(Sc2cccc(C(=O)O)c2)c2ccc(Cl)c(F)c2n1CC(=O)N1CCCC(O)(C(F)(F)F)C1 (centres unmarked) [Compound 1-83, 3-((6-Chloro-7-fluoro-1-(2-(3-hydroxy-3-(trifluoromethyl)piperidin-1-yl)-2-oxoethyl)-2-methyl-1H-indol-3-yl)thio)benzoic acid]
≤ 500	Cc1c(Sc2cccc(C(=O)O)c2)c2ccc(Cl)c(F)c2n1CC(=O)NC(C)C [Compound 1-1, 3-((6-Chloro-7-fluoro-1-(2-(isopropylamino)-2-oxoethyl)-2-methyl-1H-indol-3-yl)thio)benzoic acid]
